According to ChEMBL document CHEMBL1144998, “C(8) substituted 1-azabicyclo[3.3.1]non-3-enes and C(8) substituted 1-azabicyclo[3.3.1]nonan-4-ones: novel muscarinic receptor antagonists” (J Med Chem, 2003):

Columns and labels:
[1] = molecular target: Muscarinic acetylcholine receptor M3 (Homo sapiens, UniProt P20309); assay: Binding affinity of compound was determined towards human Muscarinic acetylcholine receptor M3 using [3H]QNB radioligand
[2] = molecular target: T1, Muscarinic acetylcholine receptor M5 (Homo sapiens, UniProt P08912); assay: Binding affinity of compound was determined towards human Muscarinic acetylcholine receptor M5 using [3H]QNB radioligand
T1 sequence (P08912 whole entry): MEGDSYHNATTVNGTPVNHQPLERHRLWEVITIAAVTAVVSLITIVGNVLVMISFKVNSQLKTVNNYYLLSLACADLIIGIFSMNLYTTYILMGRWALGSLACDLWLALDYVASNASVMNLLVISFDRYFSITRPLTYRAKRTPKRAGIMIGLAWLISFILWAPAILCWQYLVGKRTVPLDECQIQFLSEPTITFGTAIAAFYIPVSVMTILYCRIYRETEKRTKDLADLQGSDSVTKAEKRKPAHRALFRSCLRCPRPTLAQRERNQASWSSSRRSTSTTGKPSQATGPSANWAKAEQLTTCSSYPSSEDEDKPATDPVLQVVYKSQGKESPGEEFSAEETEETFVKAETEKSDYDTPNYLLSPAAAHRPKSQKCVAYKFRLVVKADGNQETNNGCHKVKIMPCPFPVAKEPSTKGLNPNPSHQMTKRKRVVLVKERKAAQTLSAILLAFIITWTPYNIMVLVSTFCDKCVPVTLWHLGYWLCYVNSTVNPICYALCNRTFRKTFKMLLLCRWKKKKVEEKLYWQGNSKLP

[3] = molecular target: T2, Muscarinic acetylcholine receptor M4 (Homo sapiens, UniProt P08173); assay: Binding affinity of compound was determined towards human Muscarinic acetylcholine receptor M4 using [3H]QNB radioligand
T2 sequence (P08173 whole entry): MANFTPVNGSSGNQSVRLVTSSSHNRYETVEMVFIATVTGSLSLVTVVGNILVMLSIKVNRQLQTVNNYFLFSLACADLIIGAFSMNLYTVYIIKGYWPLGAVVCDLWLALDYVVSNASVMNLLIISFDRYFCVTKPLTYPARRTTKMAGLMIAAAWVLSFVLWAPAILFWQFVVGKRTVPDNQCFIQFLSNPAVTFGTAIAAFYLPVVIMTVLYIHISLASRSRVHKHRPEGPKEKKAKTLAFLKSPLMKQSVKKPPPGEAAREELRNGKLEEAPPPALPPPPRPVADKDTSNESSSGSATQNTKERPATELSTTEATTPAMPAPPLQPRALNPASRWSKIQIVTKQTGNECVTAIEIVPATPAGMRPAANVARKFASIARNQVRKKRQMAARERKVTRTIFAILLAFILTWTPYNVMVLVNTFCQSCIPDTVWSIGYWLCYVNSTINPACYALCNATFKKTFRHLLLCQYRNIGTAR

[4] = molecular target: T3, Muscarinic acetylcholine receptor M2 (Homo sapiens, UniProt P08172); assay: Binding affinity of compound was determined towards human Muscarinic acetylcholine receptor M2 using [3H]QNB radioligand
T3 sequence (P08172 whole entry): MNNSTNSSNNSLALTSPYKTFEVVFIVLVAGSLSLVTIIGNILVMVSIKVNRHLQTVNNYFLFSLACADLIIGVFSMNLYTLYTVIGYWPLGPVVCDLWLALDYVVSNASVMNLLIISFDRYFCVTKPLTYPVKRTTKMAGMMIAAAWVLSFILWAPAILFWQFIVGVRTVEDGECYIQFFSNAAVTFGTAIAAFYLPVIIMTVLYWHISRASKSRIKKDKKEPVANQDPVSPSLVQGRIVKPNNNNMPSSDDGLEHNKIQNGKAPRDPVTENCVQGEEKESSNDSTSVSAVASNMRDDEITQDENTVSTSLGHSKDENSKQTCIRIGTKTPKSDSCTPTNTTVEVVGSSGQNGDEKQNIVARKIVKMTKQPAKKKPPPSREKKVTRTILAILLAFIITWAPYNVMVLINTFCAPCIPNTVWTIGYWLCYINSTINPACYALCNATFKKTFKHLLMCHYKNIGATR

[5] = molecular target: T4, Muscarinic acetylcholine receptor M1 (Homo sapiens, UniProt P11229); assay: Binding affinity of compound was determined towards human Muscarinic acetylcholine receptor M1 using [3H]QNB radioligand
T4 sequence (P11229 whole entry): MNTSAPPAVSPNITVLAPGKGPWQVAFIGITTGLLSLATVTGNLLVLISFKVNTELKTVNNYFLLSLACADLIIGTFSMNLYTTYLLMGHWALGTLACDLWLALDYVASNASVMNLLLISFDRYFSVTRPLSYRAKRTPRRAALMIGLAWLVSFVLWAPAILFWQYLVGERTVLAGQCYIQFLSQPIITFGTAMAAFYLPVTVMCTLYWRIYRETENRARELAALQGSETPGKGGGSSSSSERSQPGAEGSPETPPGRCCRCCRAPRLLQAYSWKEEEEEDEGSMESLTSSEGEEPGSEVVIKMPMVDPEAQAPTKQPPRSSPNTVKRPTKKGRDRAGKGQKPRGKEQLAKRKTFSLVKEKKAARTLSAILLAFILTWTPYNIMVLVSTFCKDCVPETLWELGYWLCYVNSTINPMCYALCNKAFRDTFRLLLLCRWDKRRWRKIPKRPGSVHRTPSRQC

Sequence of Muscarinic acetylcholine receptor M3 (P20309 whole entry): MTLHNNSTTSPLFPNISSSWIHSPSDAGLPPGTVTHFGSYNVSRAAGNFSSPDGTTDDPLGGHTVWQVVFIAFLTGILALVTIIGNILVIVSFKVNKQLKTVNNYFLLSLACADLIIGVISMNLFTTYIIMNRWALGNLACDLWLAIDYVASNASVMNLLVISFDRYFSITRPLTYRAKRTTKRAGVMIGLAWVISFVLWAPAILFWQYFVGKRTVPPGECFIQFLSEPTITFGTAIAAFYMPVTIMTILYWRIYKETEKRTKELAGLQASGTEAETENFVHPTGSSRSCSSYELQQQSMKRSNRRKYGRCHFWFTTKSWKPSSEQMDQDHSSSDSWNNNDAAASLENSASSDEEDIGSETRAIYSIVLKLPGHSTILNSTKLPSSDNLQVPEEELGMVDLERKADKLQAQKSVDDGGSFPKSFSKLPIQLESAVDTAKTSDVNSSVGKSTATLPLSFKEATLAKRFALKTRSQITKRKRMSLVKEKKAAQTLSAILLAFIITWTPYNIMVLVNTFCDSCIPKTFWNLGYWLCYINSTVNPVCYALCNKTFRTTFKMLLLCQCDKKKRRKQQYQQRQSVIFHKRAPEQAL

SMILES | Ki [1] [µM] | Ki [2] [µM] | Ki [3] [µM] | Ki [4] [µM] | Ki [5] [µM]
CCO/C(O)=C1\CN2CC(CCC2CN(C)C)C1=O (stereo in doubt; 5) | > 100 | > 100 | > 100 | 86 | > 100
CCO/C(O)=C1\CN2CC(CCC2COCc2ccccc2)C1=O (stereo in doubt; 3) | 0.84 | 0.56 | 0.27 | 0.08 | 0.25
CCO/C(O)=C1\CN2CCCC(C2)C1=O (configuration not stated) | 1.5 | 0.98 | 2.6 | 1.6 | 1.2
CCO/C(O)=C1\CN2CC(CCC2CN(C)C)C1=O (stereo in doubt; 6) | 37 |  |  | > 100 | 
CCO/C(O)=C1\CN2CC(CCC2COCc2ccccc2)C1=O (stereo in doubt; 4) | 7.5 | 3 | 11 | 4.1 | 6.6
